Series [1] has as its system Plasmodium falciparum. Kind of series: Antimalarial activity against chloroquine-sensitive and mefloquine-resistant Plasmodium falciparum D6 by SYBR Green I-based fluorescence assay. The class given is functional.
Series [2] is described as follows: Apparent permeability from apical to basolateral side of dog MDCK cells at 5 uM after 2 hrs by LC/MS/MS analysis. Type of series: ADME, cell-based, Canis lupus familiaris.
Series [3] deals with Plasmodium falciparum. Kind of series: Antimalarial activity against chloroquine, mefloquine and pyrimethamine-resistant Plasmodium falciparum TM91C235 by SYBR Green I-based fluorescence assay. The class given is functional.
Series [4] concerns Plasmodium falciparum. Kind of series: Antimalarial activity against chloroquine, mefloquine and pyrimethamine-resistant Plasmodium falciparum TM90C2A assessed as inhibition of [3H]hypoxanthine incorporation by liquid scintillation spectrometry. Type of series: functional.
In series [5] the test system is Plasmodium falciparum. Kind of series: Antimalarial activity against chloroquine-sensitive and mefloquine-resistant Plasmodium falciparum D6 assessed as inhibition of [3H]hypoxanthine incorporation by liquid scintillation spectrometry. Type of series: functional.
Series [6] relates to Plasmodium falciparum. The series is described as follows: Antimalarial activity against chloroquine-resistant and mefloquine-sensitive Plasmodium falciparum W2 assessed as inhibition of [3H]hypoxanthine incorporation by liquid scintillation spectrometry. The class given is functional.
Series [7] has as its system Plasmodium falciparum. The series is described as follows: Antimalarial activity against chloroquine, mefloquine and pyrimethamine-resistant Plasmodium falciparum TM91C235 assessed as inhibition of [3H]hypoxanthine incorporation by liquid scintillation spectrometry. The class given is functional.

By IC90 is commonly meant the point of the concentration-response curve where the effect stands at 90%. In general, Papp A→B refers to the apparent permeability from the apical to the basolateral side of a cell layer.

Converted amounts (≈) assume the structure as drawn.

For the molecule `CC(CNC1CCCCC1)NCC(O)c1cc(C(F)(F)F)nc2c(C(F)(F)F)cccc12` (centres undefined), the concentration for an effect of 90% (IC90) turned out to be 0.026 µg/mL (≈ 0.0561 µM) in the series on Plasmodium falciparum [1] and 0.082 µg/mL (≈ 0.177 µM) in the series with Plasmodium falciparum [3]. Besides, the Papp A→B at 2 h, 5 µM in series [2] came out at 9.6 ×10⁻⁶ cm/s.
In the same order, the values of `CC(CNC1CCC1)NCC(O)c1cc(C(F)(F)F)nc2c(C(F)(F)F)cccc12` (centres undefined) are 0.0014 µg/mL (≈ 0.00322 µM), 0.0093 µg/mL (≈ 0.0214 µM) and 10.4 ×10⁻⁶ cm/s.
In the same order, the values of `CC(CNC1CCCC1)NCC(O)c1cc(C(F)(F)F)nc2c(C(F)(F)F)cccc12` (centres undefined) are 0.03 µg/mL (≈ 0.0667 µM), 0.124 µg/mL (≈ 0.276 µM) and 11.1 ×10⁻⁶ cm/s.
Consider `O=C1NCCC1N(CCNCC(O)c1cc(C(F)(F)F)nc2c(C(F)(F)F)cccc12)C1CCNC1=O` (centres undefined), for which the IC90 is > 0.5 µg/mL in the series on Plasmodium falciparum [4], > 0.5 µg/mL in the series on Plasmodium falciparum [5], 0.487 µg/mL (≈ 0.913 µM) in the series with Plasmodium falciparum [6] and > 0.5 µg/mL with Plasmodium falciparum [7].
With `NCCCNCCNCC(O)c1cc(C(F)(F)F)nc2c(C(F)(F)F)cccc12` (centres undefined), the IC90 is > 0.5 µg/mL in the series with Plasmodium falciparum [4], 0.38 µg/mL (≈ 0.895 µM) in the series on Plasmodium falciparum [5], > 0.5 µg/mL in the series on Plasmodium falciparum [6] and > 0.5 µg/mL in the series on Plasmodium falciparum [7].
Consider `CN(C)CCNCC(O)c1cc(C(F)(F)F)nc2c(C(F)(F)F)cccc12` (centres undefined), for which the IC90 with Plasmodium falciparum [4], with Plasmodium falciparum [5], in the series with Plasmodium falciparum [6] and with Plasmodium falciparum [7] was > 0.5 µg/mL throughout.
As for `CNCCNCC(O)c1cc(C(F)(F)F)nc2c(C(F)(F)F)cccc12` (centres undefined), the IC90 in the series on Plasmodium falciparum [4] was > 0.5 µg/mL; with Plasmodium falciparum [5], > 0.5 µg/mL; with Plasmodium falciparum [6], 0.481 µg/mL (≈ 1.26 µM); in the series with Plasmodium falciparum [7], > 0.5 µg/mL.
As to `OC(CNCCNc1ccccc1)c1cc(C(F)(F)F)nc2c(C(F)(F)F)cccc12` (centres undefined), the IC90 in the series on Plasmodium falciparum [1] amounted to 0.028 µg/mL (≈ 0.0631 µM); in the series with Plasmodium falciparum [3] it was 0.07 µg/mL (≈ 0.158 µM). Moreover, the Papp A→B at 2 h, 5 µM in series [2] worked out at 13 ×10⁻⁶ cm/s.
The corresponding values for `NCCNCC(O)c1cc(C(F)(F)F)nc2c(C(F)(F)F)cccc12` (centres undefined) are 0.988 µg/mL (≈ 2.69 µM), 1.14 µg/mL (≈ 3.11 µM) and 3.1 ×10⁻⁶ cm/s.
In the same order, the values of `OC(CNCCN(C1CCCCC1)C1CCCCC1)c1cc(C(F)(F)F)nc2c(C(F)(F)F)cccc12` (centres undefined) are 0.0093 µg/mL (≈ 0.0175 µM), 0.022 µg/mL (≈ 0.0414 µM) and 24.7 ×10⁻⁶ cm/s.
As to `CC(C)NCCNCC(O)c1cc(C(F)(F)F)nc2c(C(F)(F)F)cccc12` (centres undefined), the IC90 stood at 0.012 µg/mL (≈ 0.0293 µM) with Plasmodium falciparum [1] and 0.032 µg/mL (≈ 0.0782 µM) with Plasmodium falciparum [3]. Moreover, the Papp A→B at 2 h, 5 µM in series [2] came to 12.7 ×10⁻⁶ cm/s.
Consider `OC(CNCCNC1CC1)c1cc(C(F)(F)F)nc2c(C(F)(F)F)cccc12` (centres undefined), for which the IC90 came out at 0.041 µg/mL (≈ 0.101 µM) in the series on Plasmodium falciparum [1] and 0.128 µg/mL (≈ 0.314 µM) in the series with Plasmodium falciparum [3]. In addition, the Papp A→B at 2 h, 5 µM in series [2] came out at 2.8 ×10⁻⁶ cm/s.
With `CC(C)(C)NCCNCC(O)c1cc(C(F)(F)F)nc2c(C(F)(F)F)cccc12` (centres undefined), the IC90 with Plasmodium falciparum [1] is 0.243 µg/mL (≈ 0.574 µM); in the series with Plasmodium falciparum [3], 0.504 µg/mL (≈ 1.19 µM). The Papp A→B at 2 h, 5 µM in series [2] is 11.2 ×10⁻⁶ cm/s.
In the same order, the values of `OC(CNCCNC1CCCC1)c1cc(C(F)(F)F)nc2c(C(F)(F)F)cccc12` (centres undefined) are 0.11 µg/mL (≈ 0.253 µM), 0.198 µg/mL (≈ 0.455 µM) and 3 ×10⁻⁶ cm/s.
The corresponding values for `OC(CNCCNC1CCCCC1)c1cc(C(F)(F)F)nc2c(C(F)(F)F)cccc12` (centres undefined) are 0.122 µg/mL (≈ 0.271 µM), 0.142 µg/mL (≈ 0.316 µM) and 2.7 ×10⁻⁶ cm/s.
As to `CC(C)N(C)CCNCC(O)c1cc(C(F)(F)F)nc2c(C(F)(F)F)cccc12` (centres undefined), the results for the IC90 in the series on Plasmodium falciparum [1] and in the series on Plasmodium falciparum [3] were 0.044 µg/mL (≈ 0.104 µM) and 0.079 µg/mL (≈ 0.187 µM), respectively. Besides, in series [2], the Papp A→B at 2 h, 5 µM worked out at 9.03 ×10⁻⁶ cm/s.
In the case of `OC(CNCCNC1CCC1)c1cc(C(F)(F)F)nc2c(C(F)(F)F)cccc12` (centres undefined), the IC90 in the series with Plasmodium falciparum [1] turned out to be 0.081 µg/mL (≈ 0.192 µM); in the series with Plasmodium falciparum [3] it was 0.138 µg/mL (≈ 0.327 µM). Moreover, the Papp A→B at 2 h, 5 µM in series [2] was determined as 8.54 ×10⁻⁶ cm/s.
Consider `OC(CNC[C@]12CC[C@H](C1)NC2)c1cc(C(F)(F)F)nc2c(C(F)(F)F)cccc12` (some centres undefined), for which the IC90 is > 0.5 µg/mL with Plasmodium falciparum [4], > 0.5 µg/mL in the series with Plasmodium falciparum [5], 0.57 µg/mL (≈ 1.32 µM) in the series with Plasmodium falciparum [6] and > 0.5 µg/mL in the series with Plasmodium falciparum [7].
For `OC(NC[C@H]1CCCN1)c1cc(C(F)(F)F)nc2c(C(F)(F)F)cccc12` (some centres undefined), the IC90 stood at 0.054 µg/mL (≈ 0.137 µM) in the series on Plasmodium falciparum [4], 0.04 µg/mL (≈ 0.102 µM) in the series on Plasmodium falciparum [5], 0.008 µg/mL (≈ 0.0203 µM) in the series with Plasmodium falciparum [6] and 0.074 µg/mL (≈ 0.188 µM) with Plasmodium falciparum [7].
With `OC(NC[C@]12CC[C@@H](C1)NC2)c1cc(C(F)(F)F)nc2c(C(F)(F)F)cccc12` (some centres undefined), the IC90 with Plasmodium falciparum [5] is 0.075 µg/mL (≈ 0.179 µM); with Plasmodium falciparum [6] it was 0.275 µg/mL (≈ 0.656 µM); in the series on Plasmodium falciparum [7], 0.26 µg/mL (≈ 0.62 µM).
Consider `OC(CNCCNCc1ccccc1)c1cc(C(F)(F)F)nc2c(C(F)(F)F)cccc12` (centres undefined), for which the IC90 stood at 0.029 µg/mL (≈ 0.0634 µM) in the series with Plasmodium falciparum [1], 0.025 µg/mL (≈ 0.0547 µM) with Plasmodium falciparum [5], 0.006 µg/mL (≈ 0.0131 µM) in the series on Plasmodium falciparum [6] and 0.04 µg/mL (≈ 0.0874 µM) in the series on Plasmodium falciparum [3]. For the same molecule, the Papp A→B at 2 h, 5 µM in series [2] was 8.5 ×10⁻⁶ cm/s.
With `CC1C(NCC(O)c2cc(C(F)(F)F)nc3c(C(F)(F)F)cccc23)CC2CC1C2(C)C` (centres undefined), the IC90 in the series on Plasmodium falciparum [4] stood at 0.016 µg/mL (≈ 0.0347 µM); in the series on Plasmodium falciparum [5], 0.014 µg/mL (≈ 0.0304 µM); with Plasmodium falciparum [7] it was 0.019 µg/mL (≈ 0.0413 µM).

The values are drawn from ChEMBL document CHEMBL1821574, “Structure-activity relationships of 4-position diamine quinoline methanols as intermittent preventative treatment (IPT) against Plasmodium falciparum” (J Med Chem, 2011).
